Experimental findings from patent US20260041620A1, “NOVEL AMINO ACID BASED SALTS, COMPOSITIONS AND METHODS FOR TREATING SKIN AND IMPROVING SKIN REJUVENATION AND LONGEVITY” (Sytheon Ltd, priority 2023, published 2026) are described below.

Like-named read-outs stand apart in the source and are kept apart here.

For one assay, the target named is T1, HDAC 11 (Homo sapiens, UniProt Q96DB2).
T1 construct: purchased BPS Biosciences 50687
T1 sequence (Q96DB2 1-347): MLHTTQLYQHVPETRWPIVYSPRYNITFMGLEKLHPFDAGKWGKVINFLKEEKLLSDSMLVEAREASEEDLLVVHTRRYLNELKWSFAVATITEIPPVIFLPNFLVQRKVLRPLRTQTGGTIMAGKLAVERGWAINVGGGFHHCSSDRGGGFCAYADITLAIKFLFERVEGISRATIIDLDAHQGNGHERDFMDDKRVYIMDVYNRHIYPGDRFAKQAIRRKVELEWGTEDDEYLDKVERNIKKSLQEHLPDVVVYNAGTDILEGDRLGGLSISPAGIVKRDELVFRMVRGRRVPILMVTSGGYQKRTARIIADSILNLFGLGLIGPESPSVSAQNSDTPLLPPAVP
The assay can be described thus: HDAC 11 fluorogenic assay kit. In kind it is biochemical.

The next assay has as its target T2, FAAH (Homo sapiens, UniProt O00519).
T2 sequence (O00519 1-579): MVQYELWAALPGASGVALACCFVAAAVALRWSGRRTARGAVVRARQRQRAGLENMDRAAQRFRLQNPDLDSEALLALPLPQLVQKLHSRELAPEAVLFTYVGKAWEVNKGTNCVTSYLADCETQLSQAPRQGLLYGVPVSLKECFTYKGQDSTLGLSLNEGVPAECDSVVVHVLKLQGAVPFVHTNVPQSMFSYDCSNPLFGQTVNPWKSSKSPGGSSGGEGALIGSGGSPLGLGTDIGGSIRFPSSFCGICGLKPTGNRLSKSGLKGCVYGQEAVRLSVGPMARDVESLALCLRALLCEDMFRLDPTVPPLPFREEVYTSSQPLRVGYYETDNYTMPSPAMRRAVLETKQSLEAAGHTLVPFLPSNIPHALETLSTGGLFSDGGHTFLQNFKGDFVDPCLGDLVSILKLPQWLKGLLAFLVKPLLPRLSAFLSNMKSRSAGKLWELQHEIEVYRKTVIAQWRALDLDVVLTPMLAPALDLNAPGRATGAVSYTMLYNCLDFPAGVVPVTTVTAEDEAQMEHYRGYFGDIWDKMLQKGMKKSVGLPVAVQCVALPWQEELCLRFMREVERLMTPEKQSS
Briefly: FAAH fluorescence-based inhibitory assay. It is filed as biochemical.

Another assay concerns the target T3, FABP-3 (Homo sapiens, UniProt P05413).
T3 construct: purchased Neovateinbio PT-452
Briefly: FABP-3 ELISA inhibitory assay. In kind it is biochemical. (ELISA stands for enzyme-linked immunosorbent assay.)

In another assay the target is T4, FABP-5 (Homo sapiens, UniProt Q01469).
T4 construct: purchased Raybiotech 268-10276-1
The assay can be described thus: FABP-5 ELISA inhibitory assay. In kind it is biochemical.

Another assay addresses T5, MAGL (Homo sapiens, UniProt Q99685).
T5 construct: purchased Cayman 10007812
T5 sequence (Q99685 1-303): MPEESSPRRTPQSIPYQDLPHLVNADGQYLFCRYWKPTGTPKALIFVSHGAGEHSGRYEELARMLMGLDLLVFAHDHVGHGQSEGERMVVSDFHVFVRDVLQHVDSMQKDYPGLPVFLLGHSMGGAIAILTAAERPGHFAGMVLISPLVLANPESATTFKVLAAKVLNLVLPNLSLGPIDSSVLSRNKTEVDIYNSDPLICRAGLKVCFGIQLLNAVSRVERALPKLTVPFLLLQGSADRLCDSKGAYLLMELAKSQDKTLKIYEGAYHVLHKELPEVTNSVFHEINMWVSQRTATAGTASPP
Briefly: MAGL inhibitory assay. In kind it is biochemical. The procedure: Each study was performed in duplicate and the results averaged.
The final concentration in each well was 10 μl of sample, 5.6 μM MAGL (Cayman Catalog #10007812) and 23.6 μM 2-Arachidonoyl Glycerol (Cayman catalog #62160).

The next assay deals with HDAC 3 (Homo sapiens, UniProt O15379).
The target in a further assay is T6, HDAC7 (Homo sapiens, UniProt Q8WUI4).
T6 sequence (Q8WUI4 1-952): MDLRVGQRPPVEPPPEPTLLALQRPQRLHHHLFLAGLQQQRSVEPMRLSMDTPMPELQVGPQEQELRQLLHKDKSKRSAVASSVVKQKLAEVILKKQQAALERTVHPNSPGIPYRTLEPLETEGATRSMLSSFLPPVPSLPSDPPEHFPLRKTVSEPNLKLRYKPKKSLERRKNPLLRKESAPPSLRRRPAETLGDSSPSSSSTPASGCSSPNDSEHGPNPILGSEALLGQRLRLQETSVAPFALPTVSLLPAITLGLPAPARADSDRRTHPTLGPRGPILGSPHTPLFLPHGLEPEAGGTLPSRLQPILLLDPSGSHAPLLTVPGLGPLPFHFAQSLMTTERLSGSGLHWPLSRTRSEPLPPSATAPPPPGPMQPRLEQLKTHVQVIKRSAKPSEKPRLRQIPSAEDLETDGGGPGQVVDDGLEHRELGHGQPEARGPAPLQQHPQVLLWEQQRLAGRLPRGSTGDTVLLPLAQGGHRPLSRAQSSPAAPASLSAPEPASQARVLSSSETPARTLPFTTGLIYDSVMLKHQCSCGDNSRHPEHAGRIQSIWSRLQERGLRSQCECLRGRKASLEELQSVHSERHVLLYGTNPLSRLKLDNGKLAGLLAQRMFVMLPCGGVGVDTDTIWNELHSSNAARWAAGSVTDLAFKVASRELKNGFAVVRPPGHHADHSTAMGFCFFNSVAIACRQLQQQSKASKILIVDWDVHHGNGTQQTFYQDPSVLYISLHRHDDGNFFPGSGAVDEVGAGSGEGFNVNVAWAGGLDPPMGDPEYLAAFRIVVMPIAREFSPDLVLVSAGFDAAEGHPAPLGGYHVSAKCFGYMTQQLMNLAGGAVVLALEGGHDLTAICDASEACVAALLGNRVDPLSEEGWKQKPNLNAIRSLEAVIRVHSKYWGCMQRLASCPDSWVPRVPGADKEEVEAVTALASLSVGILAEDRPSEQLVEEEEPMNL

The next assay deals with T7, HDAC10 (Homo sapiens, UniProt Q969S8).
T7 sequence (Q969S8 1-669): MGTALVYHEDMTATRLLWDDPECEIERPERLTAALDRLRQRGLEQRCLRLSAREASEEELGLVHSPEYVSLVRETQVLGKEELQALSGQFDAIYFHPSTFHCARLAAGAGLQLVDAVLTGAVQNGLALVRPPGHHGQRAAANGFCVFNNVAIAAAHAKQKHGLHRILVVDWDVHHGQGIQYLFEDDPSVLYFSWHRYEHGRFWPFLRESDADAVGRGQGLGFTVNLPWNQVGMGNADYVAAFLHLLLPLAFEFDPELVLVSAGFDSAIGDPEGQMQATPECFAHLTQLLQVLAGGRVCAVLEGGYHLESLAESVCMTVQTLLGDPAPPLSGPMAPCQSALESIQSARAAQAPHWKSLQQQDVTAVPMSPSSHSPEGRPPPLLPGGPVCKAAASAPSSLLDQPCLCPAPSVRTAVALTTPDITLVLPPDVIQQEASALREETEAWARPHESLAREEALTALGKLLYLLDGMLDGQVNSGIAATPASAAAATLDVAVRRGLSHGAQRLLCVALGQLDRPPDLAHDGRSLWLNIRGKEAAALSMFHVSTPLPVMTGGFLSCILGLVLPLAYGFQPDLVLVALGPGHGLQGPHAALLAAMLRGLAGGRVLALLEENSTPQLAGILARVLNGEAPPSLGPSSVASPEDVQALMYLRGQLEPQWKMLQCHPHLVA

A further assay has as its target HDAC1 (Homo sapiens, UniProt Q13547). Briefly: HDAC 1 fluorogenic assay kit. The conditions noted are these: 200 ug/ml.
Another assay has as its target HDAC 4 (Homo sapiens, UniProt P56524). The assay can be described thus: HDAC 4 fluorogenic assay kit.

Chain of HDAC 4 (P56524 whole entry): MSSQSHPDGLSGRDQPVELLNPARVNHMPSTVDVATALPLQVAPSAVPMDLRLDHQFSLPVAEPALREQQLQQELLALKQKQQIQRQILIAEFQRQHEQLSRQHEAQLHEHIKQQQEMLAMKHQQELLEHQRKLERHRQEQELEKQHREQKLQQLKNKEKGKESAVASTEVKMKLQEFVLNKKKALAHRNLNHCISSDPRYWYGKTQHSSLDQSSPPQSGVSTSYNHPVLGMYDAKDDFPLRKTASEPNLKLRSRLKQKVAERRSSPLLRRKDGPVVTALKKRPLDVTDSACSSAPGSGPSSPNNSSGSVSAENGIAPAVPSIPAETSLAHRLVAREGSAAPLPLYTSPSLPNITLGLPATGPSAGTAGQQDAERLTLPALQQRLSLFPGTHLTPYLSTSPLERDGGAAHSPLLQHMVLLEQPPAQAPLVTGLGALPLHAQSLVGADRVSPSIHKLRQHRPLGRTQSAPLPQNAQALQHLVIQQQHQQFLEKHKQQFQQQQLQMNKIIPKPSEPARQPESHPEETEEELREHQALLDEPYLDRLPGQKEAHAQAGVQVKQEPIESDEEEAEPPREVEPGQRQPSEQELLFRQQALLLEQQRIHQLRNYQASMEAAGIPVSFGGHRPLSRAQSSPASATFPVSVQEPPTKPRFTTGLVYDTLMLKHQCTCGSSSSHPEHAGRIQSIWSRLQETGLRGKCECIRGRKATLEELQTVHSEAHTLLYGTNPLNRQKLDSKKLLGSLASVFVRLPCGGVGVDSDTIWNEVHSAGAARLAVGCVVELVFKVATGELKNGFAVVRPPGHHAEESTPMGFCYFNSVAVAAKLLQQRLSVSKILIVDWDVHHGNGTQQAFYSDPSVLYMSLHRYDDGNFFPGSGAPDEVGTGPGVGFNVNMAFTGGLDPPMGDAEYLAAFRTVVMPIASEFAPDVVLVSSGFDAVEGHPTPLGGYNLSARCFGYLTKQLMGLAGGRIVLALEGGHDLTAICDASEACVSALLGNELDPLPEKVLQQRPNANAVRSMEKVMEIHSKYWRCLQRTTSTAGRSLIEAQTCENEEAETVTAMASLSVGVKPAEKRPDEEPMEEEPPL
Chain of HDAC 3 (O15379 whole entry): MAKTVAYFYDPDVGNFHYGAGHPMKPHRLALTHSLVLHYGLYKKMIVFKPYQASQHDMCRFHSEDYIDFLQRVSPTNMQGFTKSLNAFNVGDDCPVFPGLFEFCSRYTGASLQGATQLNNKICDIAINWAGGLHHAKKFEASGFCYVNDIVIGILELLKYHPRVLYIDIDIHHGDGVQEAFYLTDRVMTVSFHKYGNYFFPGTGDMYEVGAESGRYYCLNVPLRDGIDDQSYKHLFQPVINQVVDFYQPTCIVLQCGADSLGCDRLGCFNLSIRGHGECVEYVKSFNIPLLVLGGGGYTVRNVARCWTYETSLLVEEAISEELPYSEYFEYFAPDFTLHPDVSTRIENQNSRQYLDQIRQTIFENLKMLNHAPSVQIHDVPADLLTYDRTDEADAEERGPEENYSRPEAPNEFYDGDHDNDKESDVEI
Chain of HDAC 3 (Q9Y618 395-489 partner limits assumed): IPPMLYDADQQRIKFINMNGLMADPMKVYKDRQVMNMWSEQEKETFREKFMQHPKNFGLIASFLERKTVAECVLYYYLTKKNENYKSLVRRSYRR
T3 sequence (P05413 whole entry): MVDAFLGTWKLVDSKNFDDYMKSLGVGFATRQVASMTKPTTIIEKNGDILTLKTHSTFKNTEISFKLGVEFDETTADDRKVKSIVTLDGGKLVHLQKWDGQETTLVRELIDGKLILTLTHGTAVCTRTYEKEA
T4 sequence (Q01469 whole entry): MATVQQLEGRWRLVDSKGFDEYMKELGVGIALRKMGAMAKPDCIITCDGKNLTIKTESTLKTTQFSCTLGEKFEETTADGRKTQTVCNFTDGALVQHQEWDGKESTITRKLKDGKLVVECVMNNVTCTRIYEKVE
Chain of HDAC1 (Q13547 whole entry): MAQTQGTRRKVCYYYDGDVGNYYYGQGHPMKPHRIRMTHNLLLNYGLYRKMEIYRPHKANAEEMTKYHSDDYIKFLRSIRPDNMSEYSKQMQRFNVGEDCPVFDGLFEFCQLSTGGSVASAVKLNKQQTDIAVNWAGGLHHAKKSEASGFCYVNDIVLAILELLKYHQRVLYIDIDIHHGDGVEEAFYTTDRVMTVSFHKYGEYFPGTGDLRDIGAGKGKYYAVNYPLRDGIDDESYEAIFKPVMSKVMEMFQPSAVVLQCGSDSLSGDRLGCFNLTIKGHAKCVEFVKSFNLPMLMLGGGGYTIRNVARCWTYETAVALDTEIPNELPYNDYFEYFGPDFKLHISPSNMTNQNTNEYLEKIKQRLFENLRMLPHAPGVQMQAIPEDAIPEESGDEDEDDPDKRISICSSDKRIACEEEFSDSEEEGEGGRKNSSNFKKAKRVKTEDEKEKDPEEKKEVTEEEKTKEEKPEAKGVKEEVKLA
Procedure for HDAC 11: (§1) Test materials were stored at room temperature and stock solutions were prepared at 20 mg/ml in DMSO. Further dilutions were made in sterile distilled water immediately before being added to the reaction mixture containing a substrate, and the reaction was triggered by the addition of purified HDAC enzymes, Double distilled water was the negative control and trichostatin (1.5 ug/ml) was used as a positive control for validation of each study. The test procedure was as directed in the assay kits. The products of the reactions were measured by fluorometry at ex/em 350/450 nm using multi-well plate fluorometer Cytofluor 4000 (Applied Biosystem, Foster City, CA) or using SpectraMax i3× Multi-Mode Detection Platform from Molecular Devices (Sunnyvale, CA).
(§2) Statistical significance was assessed with a two-tail Student test. Deviations of ≤20% as compared to water control with p values below 0.05 were considered statistically significant.
Procedure for HDAC 3: as §1, §2
Procedure for HDAC 4: as §1, §2
Procedure for HDAC10: as §1, §2
Procedure for HDAC7: as §1, §2

Consider `CCCC(=O)NCCCC[C@H](NC(=O)CCC)C(=O)[O-].CCCC(=O)NCCCC[C@H](NC(=O)CCC)C(=O)[O-].[Mg+2]` [Mg di-(di-n-butyryl lysinate), magnesium di-(di-n-butyryl lysinate)], for which the “HDAC 11 activity, % of water-treated controls” value on HDAC 11 (100 ug/ml) and at HDAC 11 (200 ug/ml) was 91% each time. Besides, at FAAH, the “FAAH IC50” value came to 368.5 µg/mL. For the same compound, the “FABP-3 IC50” value at FABP-3 was 282.5 µg/mL. Besides, at FABP-5, the “FABP-5 IC50” value was 349.1 µg/mL. At MAGL, the “MAGL IC50” value was 101 µg/mL. The “HDAC 3 activity, % of water-treated controls” value on HDAC 3 (100 ug/ml) came to 114%; at HDAC 3 (200 ug/ml) it was 117%. Also, the “HDAC 7 activity, % of water-treated controls” value at HDAC7 (100 ug/ml) and on HDAC7 (200 ug/ml) was 100% in each case. For the same compound, the “HDAC 10 activity, % of water-treated controls” value at HDAC10 (100 ug/ml) came to 98%; on HDAC10 (200 ug/ml), 102%. Further, the “HDAC 1 activity, % of water-treated controls” value on HDAC1 is on record as 74%.
As to calcium dilysinate [Ca dilysinate], the “FAAH IC50” value on FAAH came out at 445.1 µg/mL. Further, at FABP-3, the “FABP-3 IC50” value was 208.6 µg/mL. At FABP-5, the “FABP-5 IC50” value came to 871.4 µg/mL. Moreover, the “MAGL IC50” value at MAGL turned out to be 856.0 µg/mL. Moreover, the “HDAC 4 activity, % of water-treated controls” value is listed as 109% at HDAC 4 (25 ug/ml), 101% on HDAC 4 (50 ug/ml) and 107% on HDAC 4 (100 ug/ml).
